The text below walks through data of patent US20250074892A1, “CARBONYL BRIDGED HETEROCYCLIC COMPOUND, AND COMPOSITION AND APPLICATION THEREOF” (BEIJING SCITECH-MQ PHARMACEUTICALS LIMITED, priority 2022, published 2025).

The IC50 is the concentration that gives 50% inhibition. A higher IC50 goes with weaker potency.

Experiment [1] relates to L929 cells. Kind of experiment: Inhibition of cell necrosis (CCK8 method), L929 cells. The format is cell-based, mouse. The note with it: for IC50: 4-8 hours, CCK8; for inhibitory activity against mouse L929 cells: L929 necrosis. The procedure:
(§1) In this assay example 2, under the condition of inducing programmed cell necrosis of HT29 and L929 cell lines, different concentrations of the test compounds were added to test the IC50 of the rescue effect of the test compounds on the programmed necrosis.
(§2) • Compounds: dissolved in DMSO to make a 10 mM solution; • TNF-α: initial concentration of 100 µg/mL; • Z-VAD-FMK: dissolved in DMSO to make a 10 mM solution; • AT-406: dissolved in DMSO to make a 10 mM solution. • Cell lines: HT29 cells were cultured in McCoy's 5A medium containing 10% fetal bovine serum, 100 U/mL penicillin, and 100 µg/mL streptomycin, and L929 cells were cultured in MEM medium containing 10% horse serum, 100 U/mL penicillin, and 100 µg/mL streptomycin.
(§3) 1. The test compound was dissolved in DMSO to form a stock solution, and a gradient dilution was performed; the solution was then diluted with the corresponding culture medium to obtain a solution with 10 times the working concentration.
(§4) 2. The cells in the logarithmic growth phase were diluted with culture medium to a specific cell concentration. 80 µL of the cell suspension was added to a 96-well plate, so that the cell densities of HT29 and L929 were 1.2*10^4 cells/well and 2.0*10^4 cells/well, respectively. The plate was cultured in a 37° C., 5% carbon dioxide incubator overnight.
(§5) 3. […] of the compound solution was added to each well of the 96-well plate inoculated with cells. The compounds to be tested were serially diluted 4-fold to obtain 9 concentrations in duplicate, starting from a maximum concentration of 10 μM. At the same time, a control group without compound addition was set up.
(§6) 4. After the cells were cultured for another 30 minutes, 10 μL of the inducer mixture was added to each well. The final concentrations of Human TNF-α, AT-406 and Z-VAD-FMK in HT29 cells were 20 ng/mL, […] and 20 μM, respectively; and the final concentrations of Murine TNF-α and Z-VAD-FMK in L929 cells were 20 ng/mL and 25 μM, respectively.
(§7) 5. The 96-well plate in which compounds and inducer were added was placed in a 37° C., 5% carbon dioxide incubator for further culture, wherein HT29 cells were cultured for 16 hours and L929 cells were cultured for 4-8 hours. Cell viability was detected by CCK8. GraphPad Prism software was used to prepare a dose-effect curve and IC50 was calculated.

Experiment [2] deals with HT29 cells. Kind of experiment: Inhibition of cell necrosis (CCK8 method), HT29 cells. The note with it: for IC50: HT29, Human TNF-α/AT-406/Z-VAD-FMK, 16 hours, CCK8; for inhibitory activity against human HT29 cells: HT29 necrosis. The format is cell-based, human. On the procedure: as §1, §2, §3, §4, §5, §6, §7
Where [3] appears, read: Mus musculus, L929, L929, Murine TNF-α/Z-VAD-FMK.

Take `O=C(C1CCN(c2cc(-c3cc(OCC4(O)CCC4)ccc3F)ccn2)CC1)N1N=CCC1c1cc(F)cc(F)c1` (stereo not drawn) [Example 46, (5-(3,5-difluorophenyl)-4,5-dihydro-1H-pyrazol-1-yl)(1-(4-(2-fluoro-5-((1-hydroxycyclobutyl)methoxy)phenyl)pyridin-2-yl)piperidin-4-yl)methanone]: the IC50 in experiment [1] (setting [3]) was 10 to 50 nM; in experiment [2] (Homo sapiens, HT-29, 16 h), at most 10 nM.

For `CC(C)(O)COc1ccc(F)c(-c2ccnc(N3CCC(C(=O)N4N=CCC4c4cc(F)cc(F)c4)CC3)c2)c1` (stereo not drawn) [Example 47, (5-(3,5-difluorophenyl)-4,5-dihydro-1H-pyrazol-1-yl-5-deuterium)(1-(4-(2-fluoro-5-(2-hydroxy-2-methylpropoxy)phenyl)pyridin-2-yl)piperidin-4-yl)methanone], the IC50 in experiment [1] (L929, Murine TNF-α/Z-VAD-FMK) lay in the range of 10 to 50 nM; in experiment [2], 10 to 50 nM.

As for `NC(=O)c1ccc(N2CCC(C(=O)N3N=CCC3c3ccccc3)CC2)nc1` (stereo not drawn) [compound 1, reference compound], the “inhibitory activity against mouse L929 cells” value in experiment [1] is recorded as “almost no inhibitory activities”. Also, the IC50 in experiment [1] (setting [3]) was over 4000 nM; in experiment [2] (Homo sapiens, HT-29, 16 h), 400 to 4000 nM. In experiment [2], the “inhibitory activity against human HT29 cells” value is “significantly inferior to those of the compounds of the present application”.

For `O=C(C1CCN(c2nccc(-c3ccccc3)n2)CC1)N1N=CCC1c1ccccc1` (stereo not drawn) [compound 2, reference compound], the “inhibitory activity against mouse L929 cells” value in experiment [1] is “almost no inhibitory activities”. In addition, the IC50 is over 4000 nM in experiment [1] (setting [3]) and 400 to 4000 nM in experiment [2] (Homo sapiens, HT-29, 16 h). In experiment [2], the “inhibitory activity against human HT29 cells” value is “significantly inferior to those of the compounds of the present application”.
